Measurements reported in patent US20060173015A1, “Cyclohexyldiamines as selective alpha 1a/1d adrenoreceptor antagonists for the treatment of benign prostatic hypertrophy and lower urinary tract symptoms” (priority 2004, published 2006).
Structures can show the parent of a compound that is named as a salt.

Experiments:
BPH patients = conditions: large clinical trials of BPH patients; cited from earlier work
[1] = tested on: α1a and α1d subtypes over the α1b subtype; conditions: cited from earlier work
micturition pressure = conditions: intrathecal; normal rats and rats with bladder hypertrophy secondary to outlet obstruction; cited from earlier work

| SMILES | melting point | also measured |
| --- | --- | --- |
| CCN([C@H]1CC[C@@H](N2CCN(c3ccccc3OC(C)C)CC2)CC1)S(=O)(=O)c1ccc(OC)c(OC)c1 (as salt: fumarate) [Cpd 67, N-Ethyl-N-cis-{4-[4-(2-isopropoxy-phenyl)-piperazin-1-yl]-cyclohexyl}-3,4-dimethoxy-benzenesulfonamide] | 199 °C (dec.) |  |
| CCN([C@H]1CC[C@H](N2CCN(c3ccccc3OC(C)C)CC2)CC1)S(=O)(=O)c1ccc(OC)c(OC)c1 (as salt: fumarate) [Cpd 68, N-Ethyl-N-trans-{4-[4-(2-isopropoxy-phenyl)-piperazin-1-yl]-cyclohexyl}-3,4-dimethoxy-benzenesulfonamide] | 186 °C (dec.) |  |
| CCOc1ccccc1OCCN[C@H](C)Cc1ccc(OC)c(S(N)(=O)=O)c1 [Tamsulosin] |  | effect on obstructive and irritative symptoms (BPH patients): improvement in both obstructive and irritative symptoms; selectivity for the α1a and α1d subtypes over the α1b subtype [1]: about 15 fold |
| COc1cc2nc(N3CCN(C(=O)C4COc5ccccc5O4)CC3)nc(N)c2cc1OC (stereo not shown) [doxazosin] |  | effect on micturition pressure (micturition pressure): decrease in micturition pressure |

Now from value to compound, other results behind:

| melting point | SMILES | also measured |
| --- | --- | --- |
| 232 °C | COc1ccc(S(=O)(=O)N[C@H]2CC[C@@H](N3CCN(c4cc(F)ccc4OCC(F)(F)F)CC3)CC2)cc1OC (as salt: fumarate) [Cpd 83, N-cis-(4-{4-[5-Fluoro-2-(2,2,2-trifluoro-ethoxy)-phenyl]-piperazin-1-yl}-cyclohexyl)-3,4-dimethoxy-benzenesulfonamide] |  |
| 185 °C | COc1ccc(S(=O)(=O)N[C@H]2CC[C@H](N3CCN(c4cc(F)ccc4OCC(F)(F)F)CC3)CC2)cc1OC (as salt: fumarate) [Cpd 84, N-trans-(4-{4-[5-Fluoro-2-(2,2,2-trifluoro-ethoxy)-phenyl]-piperazin-1-yl}-cyclohexyl)-3,4-dimethoxy-benzenesulfonamide] |  |
